The numbers were not newly measured in paper PMC4394704, “Structures and functions of insect arylalkylamine N-acetyltransferase (iaaNAT); a key enzyme for physiological and behavioral switch in arthropods” (Frontiers in Physiology, 2015), which cites them from elsewhere.

Like-named read-outs stand apart in the source and are kept apart here.

A word on the Km: it is the substrate concentration at which the rate is half of its maximum.

Data set [1] relates to T1, bNAT (basic aaNAT, NATb).
T1 construct: native, purified from midgut; 28 kDa by SDS-PAGE; pH optimum 9-10
The data set is described as follows: N-acetyltransferase activity of purified fraction. The settings on record: co-substrate acetyl CoA; pH not given. Type of data set: biochemical, Periplaneta americana. From the text:
N-acetyltransferase activity of purified fraction on bNAT (basic aaNAT, NATb)

In data set [2] the test system is T2, aNAT (acidic aaNAT, NATa).
T2 construct: native, purified from testicular accessory gland; 28 kDa by SDS-PAGE; pH optimum 5-6
Briefly: N-acetyltransferase activity of purified fraction. To be noted: co-substrate acetyl CoA; pH not given. Type of data set: biochemical, Periplaneta americana. From the text: N-acetyltransferase activity of purified fraction on aNAT (acidic aaNAT, NATa)

Data set [3] addresses T3, apaaNAT (aaNAT from A. pernyi) (Antheraea pernyi, UniProt A2SZ52).
T3 construct: cDNA expressed in Sf9 cells by baculovirus
T3 sequence (A2SZ52 1-261): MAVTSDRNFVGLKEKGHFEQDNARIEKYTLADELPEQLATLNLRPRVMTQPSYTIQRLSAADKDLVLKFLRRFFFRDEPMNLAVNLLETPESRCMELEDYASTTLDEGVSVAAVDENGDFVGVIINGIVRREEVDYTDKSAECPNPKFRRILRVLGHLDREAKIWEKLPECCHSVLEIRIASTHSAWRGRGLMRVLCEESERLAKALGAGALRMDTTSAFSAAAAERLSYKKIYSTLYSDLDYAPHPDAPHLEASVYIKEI
The data set is described as follows: N-acetyltransferase activity assay, recombinant enzyme. To be noted: optimal pH 8.0 printed for the enzyme, read-out: apparent Km. Type of data set: biochemical.

`NCCc1ccc(O)c(O)c1` [Dopamine]: the Km was 1520 µM in data set [1] and 25 µM in data set [2]. For `CC(=O)SCCNC(=O)CCNC(=O)[C@H](O)C(C)(C)COP(=O)(O)OP(=O)(O)OC[C@H]1O[C@@H](n2cnc3c(N)ncnc32)[C@H](O)[C@@H]1OP(=O)(O)O` [acetyl CoA], the Michaelis-Menten constant (Km) in data set [3] was 1.42 µM. As to `NC[C@H](O)c1ccc(O)c(O)c1` [Norepinephrine], in data set [2], the Km was 28.6 µM. With `NC[C@H](O)c1ccc(O)cc1` [Octopamine], the Km is 385 µM in data set [1] and 20 µM in data set [2]. As to `COc1ccc2[nH]cc(CCN)c2c1` [Methoxy-TN], the Km in data set [1] is 200 µM; in data set [2], 25 µM. In the case of `NCCc1ccc(O)cc1` [Tyramine], the results for the Michaelis constant (Km) in data set [1] and in data set [2] were 15.7 µM and 28.6 µM, respectively. Take `NCCc1c[nH]c2ccc(O)cc12` [5HT]: the Km in data set [1] is 325 µM; in data set [2] it was 50 µM. Take `NCCc1c[nH]c2ccccc12` [tryptamine]: the Km was 1330 µM in data set [1], 3.31 µM in data set [3] (substrate inhibition above 0.03 mM with 0.11 mM acetyl CoA) and 25 µM in data set [2].
